The values below come from PubChem BioAssay (NCI).

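Cells were grown in 96-well plates and exposed to each compound for 48 hours at five concentrations; endpoints were interpolated linearly between bracketing concentrations, or set to the highest concentration if not reached. GI50: concentration for 50% inhibition of growth. TGI marks complete inhibition of growth.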 Where only a bound is given, the exact number is not on record here.

Test systems include T-47D breast; U251 CNS; SR leukemia; NCI-H460 lung; 786-0 renal; SK-OV-3 ovarian; HOP-92 NSCLC; HCT-116 colon; TK-10 renal; OVCAR-3 ovarian.
Experiment in all cases: DTP human tumour cell line panel, 48 h

A word on the GI50: it is the concentration at which growth is held to half of that of the control. Usually TGI stands for the concentration at which net growth stops. High values mean less potent growth arrest, low ones more potent growth arrest. For the compound `C[C@@H]1CCc2ncc(F)cc2[C@H]2CCCN2c2ccn3ncc(c3n2)C(=O)N1`, the GI50 in the experiment with T-47D breast is 86.1 µM; in the experiment with U251 CNS, greater than 100 µM; with SR leukemia, 4.38 µM; in the experiment on NCI-H460 lung, greater than 100 µM; in the experiment with 786-0 renal, 63 µM; in the experiment on SK-OV-3 ovarian, 91.7 µM. The GI50 was 47.8 µM in the experiment with HOP-92 NSCLC, greater than 100 µM in the experiment on HCT-116 colon, 81.7 µM with TK-10 renal and 88.6 µM in the experiment on OVCAR-3 ovarian. For the same compound, the TGI in the experiment with T-47D breast, in the experiment on U251 CNS, in the experiment with SR leukemia, in the experiment on NCI-H460 lung, in the experiment on 786-0 renal and in the experiment with SK-OV-3 ovarian was greater than 100 µM throughout. For the same compound, the TGI in the experiment with HOP-92 NSCLC, in the experiment with HCT-116 colon, in the experiment with TK-10 renal and with OVCAR-3 ovarian was greater than 100 µM in each case.
For `C[As](C)SC1OCC(O)C(O)C1O` (stereo not given), the GI50 in the experiment with T-47D breast is 0.158 µM; with U251 CNS, 0.46 µM; in the experiment on SR leukemia, 0.0255 µM; in the experiment on NCI-H460 lung, 1.1 µM; in the experiment with 786-0 renal, 0.0708 µM; in the experiment on SK-OV-3 ovarian, 0.211 µM. In addition, the GI50 in the experiment on HOP-92 NSCLC is 0.283 µM; in the experiment with HCT-116 colon it was 0.244 µM; in the experiment on TK-10 renal, less than 0.0258 µM; in the experiment with OVCAR-3 ovarian it was 0.081 µM. The TGI in the experiment on T-47D breast amounted to 4.74 µM; in the experiment with U251 CNS, 1.71 µM; in the experiment with SR leukemia, 0.0849 µM; in the experiment on NCI-H460 lung, 7.52 µM; in the experiment on 786-0 renal it was 0.545 µM; with SK-OV-3 ovarian it was 4.47 µM. Also, the TGI amounted to 2.07 µM with HOP-92 NSCLC, 1.37 µM with HCT-116 colon, 0.19 µM with TK-10 renal and 0.412 µM in the experiment on OVCAR-3 ovarian.
